Measurements as given in ChEMBL document CHEMBL4831556, “Discovery of a Novel Potent and Selective Calcium Release-Activated Calcium Channel Inhibitor: 2,6-Difluoro-N-(2'-methyl-3'-(4-methyl-5-oxo-4,5-dihydro-1,3,4-oxadiazol-2-yl)-[1,1'-biphenyl]-4-yl)benzamide. Structure-Activity Relationship and Preclinical Characterization” (J Med Chem, 2021).
Values joined by “and” are separate entries in the source; they are usually repeats but may differ in a detail not shown here. Equal values may be shown once.

Key:
[1] = Volume of distribution at steady state in BALB/c mouse at 1 mg/kg, iv measured upto 24 hrs by LC-MS/MS analysis; format: ADME, organism-based; conditions: in vivo, read-out: Vdss
Cytochrome P450 2E1 = Cytochrome P450 2E1 (Homo sapiens, UniProt P05181); assay: Inhibition of CYP2E1 in human liver microsomes at 10 uM by LC-MS/MS analysis; format: ADME
Cytochrome P450 2E1, sequence (P05181 whole entry): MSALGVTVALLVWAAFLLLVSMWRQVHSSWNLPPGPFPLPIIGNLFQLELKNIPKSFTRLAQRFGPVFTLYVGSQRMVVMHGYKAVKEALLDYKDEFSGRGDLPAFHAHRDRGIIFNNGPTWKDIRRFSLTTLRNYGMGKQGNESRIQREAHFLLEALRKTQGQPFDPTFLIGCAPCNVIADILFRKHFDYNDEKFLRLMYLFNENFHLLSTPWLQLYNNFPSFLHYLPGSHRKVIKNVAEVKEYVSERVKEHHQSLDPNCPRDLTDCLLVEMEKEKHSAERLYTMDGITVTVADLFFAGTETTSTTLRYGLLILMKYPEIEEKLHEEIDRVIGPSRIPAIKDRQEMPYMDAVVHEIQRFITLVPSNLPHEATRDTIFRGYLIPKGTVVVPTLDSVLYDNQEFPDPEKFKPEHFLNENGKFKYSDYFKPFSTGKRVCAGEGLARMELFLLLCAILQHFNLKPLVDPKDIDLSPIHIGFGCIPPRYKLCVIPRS

[2] = Cmax in BALB/c mouse at 1 mg/kg, iv measured upto 24 hrs by LC-MS/MS analysis; format: ADME, organism-based; parameters: route intravenous, dose 1 mg/kg, time <=24; conditions: in vivo
[3] = Half life in Lewis rat at 10 mg/kg, po measured upto 24 hrs by LC-MS/MS analysis; format: ADME, organism-based; conditions: in vivo
Cytochrome P450 2C19 = Cytochrome P450 2C19 (Homo sapiens, UniProt P33261); assay: Inhibition of CYP2C19 in human liver microsomes at 10 uM by LC-MS/MS analysis; format: ADME
Cytochrome P450 2C19, sequence (P33261 whole entry): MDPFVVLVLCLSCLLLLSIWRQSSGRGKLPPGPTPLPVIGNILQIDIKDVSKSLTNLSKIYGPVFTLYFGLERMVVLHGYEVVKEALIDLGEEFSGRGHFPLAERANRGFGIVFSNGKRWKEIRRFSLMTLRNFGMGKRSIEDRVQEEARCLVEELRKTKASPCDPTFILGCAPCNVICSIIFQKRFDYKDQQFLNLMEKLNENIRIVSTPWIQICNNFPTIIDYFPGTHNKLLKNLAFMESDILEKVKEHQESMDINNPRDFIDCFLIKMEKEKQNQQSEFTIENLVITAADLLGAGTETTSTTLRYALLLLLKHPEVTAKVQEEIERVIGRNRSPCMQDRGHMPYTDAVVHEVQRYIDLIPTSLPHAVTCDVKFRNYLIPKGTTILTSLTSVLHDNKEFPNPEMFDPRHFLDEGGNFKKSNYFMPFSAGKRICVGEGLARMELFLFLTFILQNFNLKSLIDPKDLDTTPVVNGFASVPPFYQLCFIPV

[4] = Apparent permeability across apical to basolateral side in human Caco-2 cells at 5 uM measured upto 120 mins in orbital shaker; format: ADME, cell-based
[5] = Apparent permeability across basolateral to apical side in human Caco-2 cells at 5 uM measured upto 120 mins in orbital shaker; format: ADME, cell-based
[6] = Tmax in BALB/c mouse at 1 mg/kg, iv measured upto 24 hrs by LC-MS/MS analysis; format: ADME, organism-based; conditions: in vivo
[7] = Tmax in Lewis rat at 1 mg/kg, iv measured upto 24 hrs by LC-MS/MS analysis; format: ADME, organism-based; conditions: in vivo
[8] = Oral bioavailability in BALB/c mouse at 10 mg/kg measured upto 24 hrs by LC-MS/MS analysis; format: ADME, organism-based; conditions: in vivo
[9] = AUClast in BALB/c mouse at 1 mg/kg, iv measured upto 24 hrs by LC-MS/MS analysis; format: ADME, organism-based; parameters: route intravenous, dose 1 mg/kg, time <=24; conditions: in vivo
[10] = Metabolic stability in dog liver microsomes preincubated for 5 mins followed by NADPH addition and measured upto 30 mins by LC-MS/MS analysis; format: ADME, Canis lupus familiaris, Microsome; conditions: 0.5 h, time <=35 min
[11] = Metabolic stability in monkey liver microsomes preincubated for 5 mins followed by NADPH addition and measured upto 30 mins by LC-MS/MS analysis; format: ADME, Macaca mulatta, Microsome; conditions: rhesus monkey, 0.5 h, time <=35 min
[12] = Cmax in human whole blood at 80 mg, bid; format: ADME, tissue-based; parameters: dose 80 mg
[13] = target: Voltage-gated inwardly rectifying potassium channel KCNH2 (Homo sapiens, UniProt Q12809); assay: Inhibition of human ERG by FLIPR TETRA method
Voltage-gated inwardly rectifying potassium channel KCNH2, sequence (Q12809 whole entry): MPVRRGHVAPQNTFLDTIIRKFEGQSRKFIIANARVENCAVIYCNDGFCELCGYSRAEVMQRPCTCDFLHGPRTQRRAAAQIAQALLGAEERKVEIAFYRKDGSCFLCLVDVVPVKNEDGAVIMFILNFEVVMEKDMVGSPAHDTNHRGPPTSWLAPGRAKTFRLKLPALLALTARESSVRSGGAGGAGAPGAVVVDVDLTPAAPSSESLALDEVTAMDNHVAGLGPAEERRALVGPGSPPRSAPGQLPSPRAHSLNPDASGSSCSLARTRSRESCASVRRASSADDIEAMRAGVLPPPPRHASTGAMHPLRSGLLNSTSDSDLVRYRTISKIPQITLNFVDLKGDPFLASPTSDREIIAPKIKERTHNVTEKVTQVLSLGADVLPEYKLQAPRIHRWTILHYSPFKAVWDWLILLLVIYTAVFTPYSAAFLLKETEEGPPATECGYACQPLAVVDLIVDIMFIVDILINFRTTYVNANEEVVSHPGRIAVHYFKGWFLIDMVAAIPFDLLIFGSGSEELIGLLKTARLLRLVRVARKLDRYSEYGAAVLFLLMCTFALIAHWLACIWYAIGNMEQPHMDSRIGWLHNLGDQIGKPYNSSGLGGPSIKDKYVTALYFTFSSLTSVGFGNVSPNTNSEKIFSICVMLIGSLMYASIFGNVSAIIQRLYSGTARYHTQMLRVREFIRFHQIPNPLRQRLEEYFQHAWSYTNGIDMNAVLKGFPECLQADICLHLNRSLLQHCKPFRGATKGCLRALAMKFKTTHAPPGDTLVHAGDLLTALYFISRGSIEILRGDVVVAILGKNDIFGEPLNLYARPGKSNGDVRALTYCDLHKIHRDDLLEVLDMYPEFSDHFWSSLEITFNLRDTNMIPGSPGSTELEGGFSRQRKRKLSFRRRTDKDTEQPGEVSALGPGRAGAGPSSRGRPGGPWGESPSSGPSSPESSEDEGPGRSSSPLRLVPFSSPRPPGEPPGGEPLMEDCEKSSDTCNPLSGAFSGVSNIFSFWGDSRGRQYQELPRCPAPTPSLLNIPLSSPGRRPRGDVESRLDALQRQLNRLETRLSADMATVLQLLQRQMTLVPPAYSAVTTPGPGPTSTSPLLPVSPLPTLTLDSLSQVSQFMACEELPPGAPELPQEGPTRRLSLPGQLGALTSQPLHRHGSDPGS

[14] = Cmax in BALB/c mouse model of mBSA-induced delayed type hypersensitivity at 3 mg/kg, po administered twice daily for 7 days followed by mBSA challenge and measured after 24 hrs; format: ADME, organism-based; parameters: route oral, time 8 day, dose 3 mg/kg; conditions: in vivo
[15] = AUClast in collagen-induced rheumatoid arthritis DBA/1J mouse model at 3 mg/kg, po administered twice daily for 15 days in presence of 0.75 mg/kg of methotrexate; format: ADME, organism-based; parameters: route oral, dose 3 mg/kg, time 15 day; conditions: in vivo
[16] = Tmax in CFA-induced rheumatoid arthritis Lewis rat model at 1 mg/kg, po administered once daily for 15 days; format: ADME, organism-based; conditions: in vivo, time 15 day
[17] = Trough concentration in human whole blood at 160 mg, qd; format: ADME, tissue-based; conditions: read-out: Cmin
[18] = Tmax in BALB/c mouse model of mBSA-induced delayed type hypersensitivity at 1 mg/kg, po administered twice daily for 7 days followed by mBSA challenge and measured after 24 hrs; format: ADME, organism-based; conditions: in vivo, time 8 day
[19] = Toxicity in rat assessed as minimum effective dose; conditions: in vivo
[20] = Tmax in BALB/c mouse model of mBSA-induced delayed type hypersensitivity at 10 mg/kg, po administered twice daily for 7 days followed by mBSA challenge and measured after 24 hrs; format: ADME, organism-based; conditions: in vivo, time 8 day
[21] = Trough concentration in human whole blood at 80 mg, bid; format: ADME, tissue-based; conditions: read-out: Cmin
[22] = Tmax in BALB/c mouse model of mBSA-induced delayed type hypersensitivity at 3 mg/kg, po administered twice daily for 7 days followed by mBSA challenge and measured after 24 hrs; format: ADME, organism-based; conditions: in vivo, time 8 day
[23] = Cmax in collagen-induced rheumatoid arthritis DBA/1J mouse model at 3 mg/kg, po administered twice daily for 15 days; format: ADME, organism-based; parameters: route oral, time 15 day, dose 3 mg/kg; conditions: in vivo
[24] = Cmax in rat at 60 mg/kg/day after 13 weeks; format: ADME, organism-based; parameters: time 13 weeks, dose 60 mg/kg/day; conditions: in vivo
[25] = Cmax in BALB/c mouse model of mBSA-induced delayed type hypersensitivity at 10 mg/kg, po administered twice daily for 7 days followed by mBSA challenge and measured after 24 hrs; format: ADME, organism-based; parameters: route oral, dose 10 mg/kg, time 8 day; conditions: in vivo
[26] = Cmax in rat at 1 mg/kg/day; format: ADME, organism-based; parameters: dose 1 mg/kg/day; conditions: in vivo
[27] = Cmax in human whole blood at 160 mg, qd; format: ADME, tissue-based; parameters: dose 160 mg
[28] = AUClast in BALB/c mouse model of mBSA-induced delayed type hypersensitivity at 1 mg/kg, po administered twice daily for 7 days followed by mBSA challenge and measured after 24 hrs; format: ADME, organism-based; parameters: route oral, dose 1 mg/kg, time 8 day; conditions: in vivo
[29] = Cmax in rat at 60 mg/kg/day after 2 weeks; format: ADME, organism-based; parameters: time 2 weeks, dose 60 mg/kg/day; conditions: in vivo
[30] = Tmax in collagen-induced rheumatoid arthritis DBA/1J mouse model at 3 mg/kg, po administered twice daily for 15 days; format: ADME, organism-based; conditions: in vivo, time 15 day
[31] = Cmax in collagen-induced rheumatoid arthritis DBA/1J mouse model at 3 mg/kg, po administered twice daily for 15 days in presence of 0.75 mg/kg of methotrexate; format: ADME, organism-based; parameters: route oral, dose 3 mg/kg, time 15 day; conditions: in vivo
[32] = Tmax in CFA-induced rheumatoid arthritis Lewis rat model at 3 mg/kg, po administered once daily for 15 days; format: ADME, organism-based; conditions: in vivo, time 15 day
[33] = AUC(0 to t) in human at […] measured on day 14; format: ADME, organism-based; parameters: time 14 day; conditions: in vivo
[34] = Trough concentration in human whole blood at 80 mg, qd; format: ADME, tissue-based; conditions: read-out: Cmin
[35] = AUClast in CFA-induced rheumatoid arthritis Lewis rat model at 0.3 mg/kg, po administered once daily for 15 days; format: ADME, organism-based; parameters: route oral, time 15 day, dose 0.3 mg/kg; conditions: in vivo
[36] = AUClast in rat at 1 mg/kg/day; format: ADME, organism-based; parameters: time 0 - last, dose 1 mg/kg/day; conditions: in vivo
[37] = Cmax in BALB/c mouse model of mBSA-induced delayed type hypersensitivity at 1 mg/kg, po administered twice daily for 7 days followed by mBSA challenge and measured after 24 hrs; format: ADME, organism-based; parameters: route oral, time 8 day, dose 1 mg/kg; conditions: in vivo
ORAI1/STIM1 = ORAI1/STIM1 (Homo sapiens, UniProt Q13586+Q96D31); assay: Inhibition of Orai1/STIM1 (unknown origin) expressed in HEK293 cells assessed as reduction in Ca2+-release activated Ca2+ entry current by manual patch clamp based electrophysiological method; format: cell-based
ORAI1/STIM1, sequence (Q96D31 whole entry): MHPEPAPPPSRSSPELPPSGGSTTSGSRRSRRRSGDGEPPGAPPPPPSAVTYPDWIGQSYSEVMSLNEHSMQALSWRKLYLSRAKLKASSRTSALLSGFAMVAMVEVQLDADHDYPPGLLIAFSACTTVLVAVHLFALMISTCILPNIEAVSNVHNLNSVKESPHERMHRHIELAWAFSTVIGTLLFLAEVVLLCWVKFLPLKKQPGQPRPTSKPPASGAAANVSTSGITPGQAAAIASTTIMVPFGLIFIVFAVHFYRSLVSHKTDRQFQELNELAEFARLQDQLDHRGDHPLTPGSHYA
ORAI1/STIM1, sequence (Q13586 whole entry): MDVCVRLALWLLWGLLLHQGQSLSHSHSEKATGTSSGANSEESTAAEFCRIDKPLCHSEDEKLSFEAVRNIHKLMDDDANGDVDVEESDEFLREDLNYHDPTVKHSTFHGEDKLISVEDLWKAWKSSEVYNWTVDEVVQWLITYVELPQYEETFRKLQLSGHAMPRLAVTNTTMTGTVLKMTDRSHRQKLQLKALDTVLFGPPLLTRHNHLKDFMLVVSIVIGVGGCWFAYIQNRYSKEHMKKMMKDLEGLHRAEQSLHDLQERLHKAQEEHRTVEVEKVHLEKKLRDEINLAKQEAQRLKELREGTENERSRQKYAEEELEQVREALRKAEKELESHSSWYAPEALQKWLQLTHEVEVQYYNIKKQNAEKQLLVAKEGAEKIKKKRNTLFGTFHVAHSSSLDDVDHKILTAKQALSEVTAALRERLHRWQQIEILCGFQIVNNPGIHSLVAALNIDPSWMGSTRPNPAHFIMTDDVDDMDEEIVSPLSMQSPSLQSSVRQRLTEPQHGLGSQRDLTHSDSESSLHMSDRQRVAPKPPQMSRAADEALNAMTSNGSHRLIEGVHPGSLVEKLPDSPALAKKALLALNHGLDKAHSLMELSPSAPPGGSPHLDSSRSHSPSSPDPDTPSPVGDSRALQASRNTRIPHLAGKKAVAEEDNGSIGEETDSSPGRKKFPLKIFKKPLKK

[38] = AUClast in BALB/c mouse model of mBSA-induced delayed type hypersensitivity at 3 mg/kg, po administered twice daily for 7 days followed by mBSA challenge and measured after 24 hrs; format: ADME, organism-based; parameters: route oral, time 8 day, dose 3 mg/kg; conditions: in vivo
[39] = Cmax in human at […] measured on day 14; format: ADME, organism-based; parameters: time 14 day; conditions: in vivo
[40] = Cmax in CFA-induced rheumatoid arthritis Lewis rat model at 0.3 mg/kg, po administered once daily for 15 days; format: ADME, organism-based; parameters: route oral, dose 0.3 mg/kg, time 15 day; conditions: in vivo
[41] = AUClast in CFA-induced rheumatoid arthritis Lewis rat model at 1 mg/kg, po administered once daily for 15 days; format: ADME, organism-based; parameters: route oral, dose 1 mg/kg, time 15 day; conditions: in vivo
[42] = Cmax in human whole blood at 80 mg, qd; format: ADME, tissue-based; parameters: dose 80 mg
[43] = Cmax in CFA-induced rheumatoid arthritis Lewis rat model at 3 mg/kg, po administered once daily for 15 days; format: ADME, organism-based; parameters: route oral, time 15 day, dose 3 mg/kg; conditions: in vivo
[44] = AUClast in BALB/c mouse model of mBSA-induced delayed type hypersensitivity at 10 mg/kg, po administered twice daily for 7 days followed by mBSA challenge and measured after 24 hrs; format: ADME, organism-based; parameters: route oral, time 8 day, dose 10 mg/kg; conditions: in vivo

Compound: Cc1c(-c2ccc(NC(=O)c3c(F)cccc3Cl)cc2)cccc1-c1nn(C)c(=O)o1
- Vd [1]: 2.3 L/kg
- inhibition (INH) (Cytochrome P450 2E1): Not Active
- Cmax [2]: 4300 nM
- half-life [3]: 16 h
- inhibition (INH) (Cytochrome P450 2C19): Not Active
- Papp A→B at 2 h, 5 µM [4]: 12.3 ×10⁻⁶ cm/s
- Papp B→A at 2 h, 5 µM [5]: 4.5 ×10⁻⁶ cm/s
- Tmax [6]: 4.8 min
- Tmax [7]: 4.8 min
- bioavailability [8]: 100%
- AUC(0-t) at 24 h [9]: 4 µM·h
- Stability [10]: Stable
- Stability [11]: Stable

Compound: Cc1c(-c2ccc(NC(=O)c3c(F)cccc3F)cc2)cccc1-c1nn(C)c(=O)o1
- Vd [1]: 2.3 L/kg
- Cmax [12]: 1570 nM
- IC50 [13]: > 10000 nM
- inhibition (INH) (Cytochrome P450 2E1): Not Active
- Cmax [14]: 1600 nM
- AUC(0-t) at 360 h [15]: 13 µM·h
- Cmax [2]: 4200 nM
- inhibition (INH) (Cytochrome P450 2C19): Not Active
- Papp A→B at 2 h, 5 µM [4]: 14.1 ×10⁻⁶ cm/s
- Tmax [16]: 2 h
- Papp B→A at 2 h, 5 µM [5]: 6.2 ×10⁻⁶ cm/s
- concentration [17]: 403 nM
- Tmax [18]: 2 h
- MED [19]: 1 mg/kg
- Tmax [20]: 2 h
- concentration [21]: 667 nM
- Tmax [22]: 2 h
- Cmax [23]: 1900 nM
- Cmax [24]: 4680 ng/mL
- Cmax [25]: 3300 nM
- Tmax [6]: 4.8 min
- Cmax [26]: 2 µM and 843 ng/mL
- Tmax [7]: 4.8 min
- Cmax [27]: 1760 nM
- AUC(0-t) at 192 h [28]: 3.1 µM·h
- Cmax [29]: 5440 ng/mL
- bioavailability [8]: 79%
- Tmax [30]: 1 h
- Cmax [31]: 1600 nM
- AUC(0-t) at 24 h [9]: 7.1 µM·h
- Tmax [32]: 4 h
- AUC(0-t) at 336 h [33]: 7050 ng·h/mL
- concentration [34]: 185 nM
- AUC(0-t) at 360 h [35]: 10 µM·h
- AUC(0-t) [36]: 36 µM·h and 15200 ng·h/mL
- Cmax [37]: 600 nM
- IC50 (ORAI1/STIM1): 76 nM
- AUC(0-t) at 192 h [38]: 8.3 µM·h
- Cmax [39]: 530 ng/mL
- Cmax [40]: 600 nM
- AUC(0-t) at 360 h [41]: 36 µM·h
- Cmax [42]: 950 nM
- Cmax [43]: 4500 nM
- Stability [10]: Stable
- Stability [11]: Stable
- AUC(0-t) at 192 h [44]: 17 µM·h
